Laboratory results published in ChEMBL document CHEMBL1133307, “Synthesis of 5-substituted analogues of huperzine A” (Bioorg Med Chem Lett, 2000).

Key:
[1] = target: Acetylcholinesterase (Homo sapiens) (UniProt P22303); assay: Percent inhibition against acetylcholinesterase (ACHE) at a concentration of 47 uM
[2] = target: Acetylcholinesterase (Homo sapiens) (UniProt P22303); assay: Percent inhibition against acetylcholinesterase (ACHE) at a concentration of 35 uM
[3] = target: Acetylcholinesterase (Homo sapiens) (UniProt P22303); assay: Percent inhibition against acetylcholinesterase (ACHE) at a concentration of 88 uM

Acetylcholinesterase (Homo sapiens), sequence (P22303 whole entry): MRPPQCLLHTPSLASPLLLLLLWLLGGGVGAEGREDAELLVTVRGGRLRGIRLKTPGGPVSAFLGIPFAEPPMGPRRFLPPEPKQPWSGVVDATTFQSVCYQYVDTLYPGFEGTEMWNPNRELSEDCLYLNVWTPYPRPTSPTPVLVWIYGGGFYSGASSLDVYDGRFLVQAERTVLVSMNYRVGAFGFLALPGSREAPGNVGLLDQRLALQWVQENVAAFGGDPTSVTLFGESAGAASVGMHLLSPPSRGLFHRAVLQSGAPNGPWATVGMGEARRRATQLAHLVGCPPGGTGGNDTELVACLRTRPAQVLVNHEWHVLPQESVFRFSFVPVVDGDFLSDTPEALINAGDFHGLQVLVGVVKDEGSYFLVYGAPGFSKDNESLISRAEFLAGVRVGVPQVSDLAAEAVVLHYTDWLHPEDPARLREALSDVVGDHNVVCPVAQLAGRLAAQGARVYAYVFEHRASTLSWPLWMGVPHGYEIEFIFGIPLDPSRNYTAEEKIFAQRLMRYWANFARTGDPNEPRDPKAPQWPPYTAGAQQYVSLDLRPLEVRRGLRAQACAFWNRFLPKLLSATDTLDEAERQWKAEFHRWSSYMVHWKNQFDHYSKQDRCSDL

C/C=C1\C2C=C(C)CC1(F)c1ccc(O)nc1C2 (stereo not drawn)
inhibition [1]: 50%

C/C=C1\C2C=C(C)CC1(O)c1ccc(O)nc1C2 (stereo not drawn)
inhibition [2]: 50%

C/C=C1\C2C=C(C)CC1(OC(C)=O)c1ccc(O)nc1C2 (stereo not drawn)
inhibition [3]: 6.36%
